This test addresses T1, CXCR4 (Homo sapiens, UniProt P61073).
T1 construct: a human T cell strain in which CXCR4 is known to be expressed; endogenous in cells; host or cells: CEM cells (human T cell strain)
The test can be described thus: Inhibition of binding of human 125I-SDF-1 to CEM cells. The following applies: 125I-SDF-1, human T cell strain CEM cells, 4° C., 60 minutes. From the text: Specifically, as a system of screening a compound that inhibits the binding between SDF-1 and CXCR4, for example a system of measuring the binding between iodine-labeled SDF-1 and a human T cell strain in which CXCR4 is known to be expressed is operable. The identical idea is possible since macrophage (R5) HIV and RANTES, MIP-1α, and MIP-1β all bind to CCR5.
Study for Inhibition of Binding Human SDF-1 to CEM Cells
To human T cell strain CEM cells in a binding buffer (containing HEPES and BSA), the test compound and ^125I-SDF-1 (NEN) were added and the mixture was incubated at 4° C. for 60 minutes. The reacted CEM cells were rapidly filtrated with a GF/B membrane filter plate (Packard) to adsorb. The plate was washed with PBS three times and then dried. Microscint+20 (Packard) was added thereto. An amount of the radioactivity bound to the CEM cells was measured using Top Count (Packard) and inhibition (%) of the test compound was calculated according to the following equation: Inhibition={(Et−Ea)/(Et−Ec)}×100
Et: amount of radioactivity when the test compound is not added,
Ec: amount of radioactivity when non-radioactive SDF-1 (Pepro Tech) is added in an amount of 1000 times as much as ^125I-SDF-1 as a test compound, and
Ea: amount of radioactivity when the test compound is added.

T1 sequence (P61073 whole entry): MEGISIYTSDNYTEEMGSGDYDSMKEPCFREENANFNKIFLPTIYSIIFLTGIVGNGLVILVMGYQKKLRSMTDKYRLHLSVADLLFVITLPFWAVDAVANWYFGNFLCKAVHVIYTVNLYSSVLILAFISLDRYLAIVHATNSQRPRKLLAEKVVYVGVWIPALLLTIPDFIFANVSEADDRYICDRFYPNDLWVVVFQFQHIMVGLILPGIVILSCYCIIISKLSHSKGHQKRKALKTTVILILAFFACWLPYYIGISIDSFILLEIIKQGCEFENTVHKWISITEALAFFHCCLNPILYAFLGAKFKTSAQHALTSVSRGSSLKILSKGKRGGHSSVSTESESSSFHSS

The IC50 is the point on the concentration scale where inhibition reaches its midpoint. A lower IC50 goes with greater potency. `Cc1ccsc1CN1CCC2(CC1)CCN(Cc1ccc(C(=O)C(Cc3ncc[nH]3)Cc3ncc[nH]3)cc1)C2` [compound 14, 3-(1H-imidazol-2-yl)-2-(1H-imidazol-2-ylmethyl)-1-[4-({8-[(3-methyl-2-thienyl)methyl]-2,8-diazaspiro[4.5]dec-2-yl}methyl)phenyl]propan-1-one] yielded an IC50 of 0.011 µM.
